Experimental data: patent publication US20240254089A1, “MODULATORS OF MAS-RELATED G-PROTEIN RECEPTOR X4 AND RELATED PRODUCTS AND METHODS” (ESCIENT PHARMACEUTICALS, INC., priority 2020, published 2024)

What follows are molecules tested against T1, human MRGPR X4 (Homo sapiens, UniProt Q96LA9) (assay: MRGPR X4 antagonist activity, IP-One Gq HTRF assay in stably transfected HEK cells). Conditions: not given.
T1 construct: expressed in transfected cells
T1 sequence (Q96LA9 whole entry): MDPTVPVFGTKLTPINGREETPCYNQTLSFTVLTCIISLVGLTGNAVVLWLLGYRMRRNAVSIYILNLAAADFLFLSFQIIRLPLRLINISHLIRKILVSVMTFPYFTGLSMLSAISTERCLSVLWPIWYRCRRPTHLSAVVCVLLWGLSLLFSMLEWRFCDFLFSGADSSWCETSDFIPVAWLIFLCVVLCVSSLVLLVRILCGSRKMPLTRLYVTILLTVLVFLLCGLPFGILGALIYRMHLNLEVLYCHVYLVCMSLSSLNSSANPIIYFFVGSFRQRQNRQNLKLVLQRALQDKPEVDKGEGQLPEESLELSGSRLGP
Assay type: cell-based
Outline: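 IC50 comes from HTRF IP-1 accumulation in stably transfected HEK cells expressing human MRGPR X4. Compounds (10 uM top, 1:3 serial, 10 points) were co-incubated with 10 μM bilirubin, 20 μM deoxycholic acid or 100 μM conjugated bilirubin in LiCl-containing buffer, pH 8, for 1 h at 37 °C plus 30 min at room temperature.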
`Cc1cccc(CCn2nc(C(=O)NCCc3nnc4ccccn34)c3ccccc32)c1` [Compound 523] was tested, and the IC50 was 1000 to 2500 nM. In the case of `O=C(NCCc1cccnc1)c1nn(Cc2ccc(OC(F)(F)F)cc2)c2ccccc12` [Compound 136, N-(2-(pyridin-3-yl)ethyl)-1-(4-(trifluoromethoxy)benzyl)-1H-indazole-3-carboxamide], the IC50 is reported as 100 to 500 nM. In the case of `CCOc1ccc(CCNC(=O)c2nn(Cc3ccc(Cl)cc3)c3ccccc23)cc1` [Compound 365], the IC50 is reported as greater than 2500 nM. With `Cc1ccc(Cn2nc(C(=O)NCCc3nnc4n3CCCCC4)c3ccccc32)cc1` [Compound 13] the IC50 was less than 100 nM. For `O=C(NCCc1ccncc1)c1cn(Cc2ccc(Cl)cc2)c2ccccc12` [Compound 163], the IC50 was 100 to 500 nM. With `Cc1ccc(Cn2cc(C(=O)NCCc3ccnn3C)c3ccccc32)cc1` [Compound 187] the IC50 was 501 to 1000 nM. `O=C(NCCc1nnc2ccccn12)c1nn(CCC2CCCCC2)c2ccccc12` [Compound 402, N-(2-([1,2,4]triazolo[4,3-a]pyridin-3-yl)ethyl)-1-(2-0cyclohexylethyl)-1H-indazole-3-carboxamide] showed an IC50 of 100 to 500 nM. `COc1ccnc(CCNC(=O)c2nn(Cc3ccc(Cl)cc3)c3ccccc23)c1` [Compound 62] was tested, and the IC50 was 100 to 500 nM. Work on `Cc1ccc(Cn2nc(C(=O)NCCc3cccnc3)c3ccccc32)cc1` [Compound 52] yielded an IC50 of 100 to 500 nM. `O=C(NCCCn1cnc2ccccc21)c1nn(Cc2ccc(Cl)cc2)c2ccccc12` [Compound 425] gave an IC50 of 1000 to 2500 nM. In the case of `O=C(NCc1cccc2nc[nH]c12)c1nn(Cc2ccc(Cl)cc2)c2ccccc12` [Compound 475], the IC50 is reported as greater than 2500 nM. In the case of `O=C(NCCc1cccnc1)c1nn(Cc2ccc(Cl)cc2)c2ccccc12` [Compound 19], the IC50 is reported as less than 100 nM. `O=C(NCCc1nnc2ccccn12)c1nn(Cc2nccc3ccccc23)c2ccccc12` [Compound 454] gave an IC50 of 1000 to 2500 nM. In the case of `O=C(Nc1cccnc1)c1nn(Cc2ccc(Cl)cc2)c2ccccc12` [Compound 130], the IC50 is reported as greater than 2500 nM. Work on `O=C(NCCc1ccc(C(F)(F)F)nc1)c1cn(Cc2ccc(Cl)cc2)c2ccccc12` [Compound 197] yielded an IC50 of 501 to 1000 nM. Molecule `CC(C)(C)c1cnc(Cn2nc(C(=O)NCCc3nnc4ccccn34)c3ccccc32)o1` [Compound 415] has an IC50 of 501 to 1000 nM. `O=C(O)c1nn(Cc2ccc(C(F)(F)F)cc2Cl)c2ccccc12` [Compound 317] gave an IC50 of 501 to 1000 nM. `O=C(NCCc1nnc2ccccn12)c1nn(Cc2cccc3c2CCC3)c2ccccc12` [Compound 545] was tested, and the IC50 was 100 to 500 nM. In the case of `CC(C)c1cc(CNC(=O)c2nn(Cc3ccc(Cl)cc3)c3ccccc23)on1` [Compound 422], the IC50 is reported as greater than 2500 nM. `O=C(NCCc1nnc2ccccn12)c1nn(Cc2ccc3ccccc3c2)c2ccc(F)cc12` [Compound 532, N-(2-([1,2,4]triazolo[4,3-a]pyridin-3-yl)ethyl)-5-fluoro-1-(naphthalen-2-ylmethyl)-1H-indazole-3-carboxamide] gave an IC50 of less than 100 nM. Molecule `Cc1ccc(CCNC(=O)c2nn(Cc3ccc(OC(F)F)cc3)c3ccccc23)cc1` [Compound 120] has an IC50 of 1000 to 2500 nM. Work on `O=C(NCCc1nnc2ccccn12)c1nn(Cc2ccc(Cl)cc2)c2cc(Br)ccc12` [Compound 550] yielded an IC50 of 100 to 500 nM. With `O=C(Cn1nc(C(=O)NCCc2nnc3ccccn23)c2ccccc21)c1ccc(Cl)cc1` [Compound 481] the IC50 was 501 to 1000 nM. For `Cc1ccc(Cn2nc(C(=O)NCCc3nc(C)cs3)c3ccccc32)cc1` [Compound 38], the IC50 was 100 to 500 nM. `CCc1ccc(Cn2nc(C(=O)NCCc3nnc4ccccn34)c3ccccc32)cc1` [Compound 447] gave an IC50 of 100 to 500 nM. With `O=C(NCCc1ccon1)c1nn(Cc2ccc(Cl)cc2)c2ccccc12` [Compound 100] the IC50 was 1000 to 2500 nM. `Cc1cc(Cn2nc(C(=O)NCCc3cccnc3)c3ccccc32)ccc1Cl` [Compound 32] was tested, and the IC50 was 100 to 500 nM. Work on `O=C(O)c1nn(Cc2ccc(OC(F)(F)F)cc2)c2ccccc12` [Compound 321] yielded an IC50 of 1000 to 2500 nM. `O=C(NCc1cncnc1)c1nn(Cc2ccc(Cl)cc2)c2ccccc12` [Compound 375] was tested, and the IC50 was greater than 2500 nM. `Cc1noc(C)c1CCCNC(=O)c1nn(Cc2ccc(Cl)cc2)c2ccccc12` [Compound 383] was tested, and the IC50 was 1000 to 2500 nM. With `O=C(CNC(=O)c1nn(Cc2ccc(Cl)cc2)c2ccccc12)c1ccc(F)cc1F` [Compound 380] the IC50 was greater than 2500 nM. Work on `O=C(NCc1cccnc1N1CCOCC1)c1nn(Cc2ccc(Cl)cc2)c2ccccc12` [Compound 395] yielded an IC50 greater than 2500 nM. `Cc1ccc(CCNC(=O)c2cn(Cc3ccc(Cl)cc3)c3ccccc23)c(C)n1` [Compound 156] was tested, and the IC50 was 100 to 500 nM. `COc1ccccc1OCCn1nc(C(=O)NCCc2nnc3ccccn23)c2ccccc21` [Compound 486] gave an IC50 of 501 to 1000 nM. With `O=C(NCCc1cnccn1)c1nn(Cc2ccc(Cl)cc2)c2ccccc12` [Compound 348] the IC50 was 1000 to 2500 nM. `Cc1cc(Cl)ccc1Cn1nc(C(=O)NCCc2nnc3n2CCCCC3)c2ccccc21` [Compound 11] was tested, and the IC50 was less than 100 nM. With `O=C(NCCN1CCCc2ccccc21)c1nn(Cc2ccc(Cl)cc2)c2ccccc12` [Compound 373] the IC50 was 501 to 1000 nM. In the case of `O=C(NCCc1cccc(C(F)(F)F)n1)c1nn(Cc2ccc(Cl)cc2)c2ccccc12` [Compound 117], the IC50 is reported as 1000 to 2500 nM. With `CC(C)n1cnnc1CCNC(=O)c1nn(Cc2ccc(Cl)cc2)c2ccccc12` [Compound 99] the IC50 was 1000 to 2500 nM. For `O=C(NCCc1nnc2ccccn12)c1nn(Cc2ccc3c(c2)OC(F)(F)O3)c2ccccc12` [Compound 507], the IC50 was 100 to 500 nM. `COc1ccc(CCNC(=O)c2cn(Cc3ccc(Cl)cc3)c3ccccc23)cn1` [Compound 168] was tested, and the IC50 was 100 to 500 nM. Molecule `O=C(NCCc1nnc2ccccn12)c1nn(Cc2nc(C3CCC3)no2)c2ccccc12` [Compound 511] has an IC50 of 100 to 500 nM. Molecule `N#Cc1ccc(Cn2cc(C(=O)NCCc3cccnc3)c3ccccc32)cc1` [Compound 193] has an IC50 of 501 to 1000 nM. Work on `Cc1ccc(CCNC(=O)c2cn(Cc3ccc(Cl)cc3)c3ccccc23)cn1` [Compound 151] yielded an IC50 of less than 100 nM. With `O=C(NCc1ccnc2ccccc12)c1nn(Cc2ccc(Cl)cc2)c2ccccc12` [Compound 371] the IC50 was greater than 2500 nM. In the case of `N#Cc1ccccc1Cn1cc(C(=O)NCCc2ccc(Cl)c(F)c2)c2ccccc21` [Compound 235], the IC50 is reported as greater than 2500 nM. Work on `O=C(NCCc1nnc2ccccn12)c1nn(Cc2ccc3ccccc3n2)c2ccccc12` [Compound 412] yielded an IC50 of 100 to 500 nM. For `O=C(NCCc1nnc2ccccn12)c1nn(Cc2ccc(Cl)c(F)c2)c2ccccc12` [Compound 524], the IC50 was less than 100 nM. Work on `O=C(NCCc1ccc(=O)[nH]c1)c1cn(Cc2ccc(Cl)cc2)c2ccccc12` [Compound 220] yielded an IC50 of 1000 to 2500 nM. In the case of `O=C(NCCc1nnc2ccccn12)c1nn(CC2CCCCC2)c2ccccc12` [Compound 488], the IC50 is reported as 501 to 1000 nM. With `CC(C)c1cccc(Cn2nc(C(=O)NCCc3nnc4ccccn34)c3ccccc32)c1` [Compound 456] the IC50 was 100 to 500 nM. `Cn1cc(C(=O)Cn2nc(C(=O)NCCc3nnc4ccccn34)c3ccccc32)cn1` [Compound 467] showed an IC50 of 100 to 500 nM. `O=C(NCCc1ccc2c(c1)OCO2)c1nn(Cc2ccc(Cl)cc2)c2ccccc12` [Compound 342] gave an IC50 of 501 to 1000 nM. Work on `Cc1ccc2nc(CCNC(=O)c3nn(Cc4ccc(Cl)cc4)c4ccccc34)[nH]c2c1` [Compound 560] yielded an IC50 of 100 to 500 nM. `COc1cccc(CCNC(=O)c2cn(Cc3ccc(Cl)cc3)c3ccccc23)c1` [Compound 164] gave an IC50 of 100 to 500 nM. Work on `COc1ccccc1CCNC(=O)c1cn(Cc2cccc(F)c2)c2ccccc12` [Compound 221] yielded an IC50 of 1000 to 2500 nM. In the case of `O=C(Nc1cncnc1)c1nn(Cc2ccc(Cl)cc2)c2ccccc12` [Compound 133], the IC50 is reported as 1000 to 2500 nM. Molecule `N#Cc1ccc(CNC(=O)c2nn(Cc3ccc(Cl)cc3)c3ccccc23)nc1` [Compound 404] has an IC50 of 1000 to 2500 nM. Work on `N#Cc1ccccc1Cn1nc(C(=O)NCCc2nnc3ccccn23)c2ccccc21` [Compound 409] yielded an IC50 of 1000 to 2500 nM. `O=C(NCCc1nnc2ccccn12)c1nn(Cc2ncco2)c2ccccc12` [Compound 440] was tested, and the IC50 was greater than 2500 nM. `O=C(NCCc1nnc2ccccn12)c1nn(Cc2ccc(-n3cccn3)cc2)c2ccccc12` [Compound 461] was tested, and the IC50 was 1000 to 2500 nM. `Cc1ccc(Cn2nc(C(=O)NCCc3nnc4n3CCC4)c3ccccc32)cc1` [Compound 59] was tested, and the IC50 was 100 to 500 nM. Molecule `Cc1cccc2c1c(C(=O)NCCc1nnc3ccccn13)nn2Cc1ccc(Cl)cc1` [Compound 565] has an IC50 of less than 100 nM. `COc1ncccc1CCNC(=O)c1cn(Cc2cccc(F)c2)c2ccccc12` [Compound 203] showed an IC50 of 1000 to 2500 nM.

Same assay, conditions: versus 20 μM deoxycholic acid agonist; HEK cells expressing human MRGPR X4; read-out: MRGPRX4 Antagonist Activity
`O=C(NCCn1cc(CN2CCS(=O)(=O)CC2)nn1)c1nn(Cc2ccc(Cl)cc2)c2ccccc12` [Compound 147] showed an IC50 greater than 2500 nM. Work on `COC(=O)c1ccc(S(=O)(=O)NC(=O)c2nn(Cc3ccc(OC(F)F)cc3)c3ccccc23)cc1` [Compound 277] yielded an IC50 of 1000 to 2500 nM. `O=C(NCCc1ccccn1)c1cn(CCc2ccc(Cl)cc2)c2ccccc12` [Compound 217] was tested, and the IC50 was 1000 to 2500 nM. `Cc1cccc(S(=O)(=O)NC(=O)c2nn(Cc3ccc(C#N)cc3)c3ccccc23)c1` [Compound 273] was tested, and the IC50 was 1000 to 2500 nM. In the case of `O=C(NCCc1nnc2ccccn12)c1nn(Cc2ccc(-c3ccccc3)cc2)c2ccccc12` [Compound 410], the IC50 is reported as greater than 2500 nM. `O=C(O)c1nn(Cc2ccc(Cl)cc2Cl)c2ccccc12` [Compound 316, 1-(2,4-dichlorobenzyl)-1H-indazole-3-carboxylic acid] gave an IC50 of 1000 to 2500 nM. `O=C(O)c1ccc(S(=O)(=O)NC(=O)c2nn(Cc3ccc(OC(F)F)cc3)c3ccccc23)cc1` [Compound 311, 4-(N-(1-(4-(difluoromethoxy)benzyl)-1H-indazole-3-carbonyl)sulfamoyl)benzoic acid] showed an IC50 of 1000 to 2500 nM. With `CS(=O)(=O)c1cccc(Cn2nc(C(=O)NCCc3nnc4ccccn34)c3ccccc32)c1` [Compound 510] the IC50 was greater than 2500 nM. `COc1ccc(S(=O)(=O)NC(=O)c2nn(Cc3ccc(OC(F)F)cc3)c3ccccc23)cc1` [Compound 289] gave an IC50 of 1000 to 2500 nM. `O=C(CS(=O)(=O)c1cn(Cc2ccc(Cl)cc2)c2ccccc12)Nc1ccc(Cl)c(Cl)c1` [Compound 249] gave an IC50 of 1000 to 2500 nM. Work on `O=C(Cn1nc(C(=O)NCCc2nnc3ccccn23)c2ccccc21)c1cc2ccccc2o1` [Compound 503] yielded an IC50 of 501 to 1000 nM. `Cc1cc(S(=O)(=O)NC(=O)c2nn(Cc3ccc(OC(F)F)cc3)c3ccccc23)ccc1F` [Compound 290] gave an IC50 of 1000 to 2500 nM.
